Reference: patent US10343992B2, “1-cyano-pyrrolidine compounds as USP30 inhibitors” (MISSION THERAPEUTICS LIMITED, priority 2015, dated 2019)

biological target: USP30 (Homo sapiens (Human), UniProt Q70CQ3); assay: USP30 biochemical FP or FI IC50 assay; conditions: read-out: IC50 range
Method: USP30 Biochemical IC50 Assay
Dilution plates were prepared at 21 times the final concentration (2100 μM for a final concentration of 100 μM) in 50% DMSO in a 96-well polypropylene V-bottom plate (Greiner #651201). A typical 8-point dilution series would be 100, 30, 10, 3, 1, 0.3, 0.1, 0.03 μM final. Reactions were performed in duplicate in black 384 well plates (small volume, Greiner 784076) in a final reaction volume of 21 μl. Either 1 μl of 50% DMSO or diluted compound was added to the plate. USP30 was diluted in reaction buffer (40 mM Tris, pH 7.5, 0.005% Tween 20, 0.5 mg/ml BSA, 5 mM—beta-mercaptoethanol) to the equivalent of 0.05 μl/well and 10 μl of diluted USP30 was added to the compound. Enzyme and compound were incubated for 30 min at room temp. Reactions were initiated by the addition of 50 nM of TAMRA labelled peptide linked to ubiquitin via an iso-peptide bond as fluorescence polarisation substrate. Reactions were read immediately after addition of substrate and following a 2 hr incubation at room temperature. Readings were performed on a Pherastar Plus (BMG Labtech). λ Excitation 540 nm; λ Emission 590 nm.
USP30 Biochemical Fluorescence Intensity IC50 Assay
Dilution plates were prepared at 21 times the final concentration (2100 μM for a final concentration of 100 μM) in 50% DMSO in a 96-well polypropylene V-bottom plate (Greiner #651201). A typical 8-point dilution series would be 100, 30, 10, 3, 1, 0.3, 0.1, 0.03 μM final. Reactions were performed in duplicate in black 384 well plates (small volume, Greiner 784076) in a final reaction volume of 21 μl.
Either 1 μl of 50% DMSO or diluted compound was added to the plate. USP30 was diluted in reaction buffer (40 mM Tris, pH 7.5, 0.005% Tween 20, 0.5 mg/ml BSA, 5 mM—beta-mercaptoethanol) to the equivalent of 0.001 μl/well and 10 μl of diluted USP30 was added to the compound. Enzyme and compound were incubated for 30 min at room temp. Reactions were initiated by the addition of Ubiquitin-Rhodamine 110 (U-555; Boston Biochem) at a final concentration of 100 nM. Reactions were read immediately after addition of substrate and following a 2 h incubation at room temperature. Readings were performed on a Pherastar Plus (BMG Labtech). λ Excitation 487 nm; λ Emission 535 nm.

USP30, sequence (Q70CQ3 57-517): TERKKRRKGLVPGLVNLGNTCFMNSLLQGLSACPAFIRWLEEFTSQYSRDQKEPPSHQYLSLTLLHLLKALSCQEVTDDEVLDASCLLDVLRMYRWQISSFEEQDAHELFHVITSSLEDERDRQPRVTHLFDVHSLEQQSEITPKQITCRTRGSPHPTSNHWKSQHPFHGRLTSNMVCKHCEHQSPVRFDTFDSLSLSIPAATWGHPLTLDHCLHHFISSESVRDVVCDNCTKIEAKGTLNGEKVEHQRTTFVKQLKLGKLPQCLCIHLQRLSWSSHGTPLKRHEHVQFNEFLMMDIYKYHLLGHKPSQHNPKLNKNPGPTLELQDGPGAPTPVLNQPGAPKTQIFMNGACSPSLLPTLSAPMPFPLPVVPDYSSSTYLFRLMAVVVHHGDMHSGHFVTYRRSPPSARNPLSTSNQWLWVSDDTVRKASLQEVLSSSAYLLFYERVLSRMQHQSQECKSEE

Cn1cc(-c2ccc3c(C(=O)N[C@@H]4CCN(C#N)C4)cnn3c2)cn1 [Example 114, (R)-N-(1-cyanopyrrolidin-3-yl)-6-(1-methyl-1H-pyrazol-4-yl)pyrazolo[1,5-a]pyridine-3-carboxamide] and Cn1cc(-c2ccn3c(C(=O)N[C@@H]4CCN(C#N)C4)ncc3c2)cn1 [Example 233, (R)-N-(1-cyanopyrrolidin-3-yl)-7-(1-methyl-1H-pyrazol-4-yl)imidazo[1,5-a]pyridine-3-carboxamide] fall in the same range of IC50: 100 to 1000 nM for the first, 100 to 1000 nM for the second.

CN(C(=O)N1CC(c2ccccc2)C1)[C@@H]1CCN(C#N)C1 [Example 189, (R)-N-(1-cyanopyrrolidin-3-yl)-N-methyl-3-phenylazetidine-1-carboxamide] and N#CN1C[C@H]2CCN(C(=O)N3CC(c4ccccc4)C3)[C@H]2C1 [Example 193, (3aR,6aR)-1-(3-phenylazetidine-1-carbonyl)hexahydropyrrolo[3,4-b]pyrrole-5(1H)-carbonitrile] fall in the same range of IC50: 100 to 1000 nM for the first, 100 to 1000 nM for the second.

Cc1nn(C)cc1-c1ccc(C(=O)N[C@@H]2CCN(C#N)C2)nc1 [Example 179, (R)-N-(1-cyanopyrrolidin-3-yl)-5-(1,3-dimethyl-1H-pyrazol-4-yl)picolinamide] and Cc1cc(-c2cc(C(=O)N[C@@H]3CCN(C#N)C3)on2)ccn1 [Example 270, (R)-N-(1-cyanopyrrolidin-3-yl)-3-(2-methylpyridin-4-yl)isoxazole-5-carboxamide] fall in the same range of IC50: 100 to 1000 nM for the first, 100 to 1000 nM for the second.

First: N#CN1C[C@H]2CCN(C(=O)c3cccc(-c4ccccc4)c3)[C@H]2C1 (racemic) [Example 51, rac-(3aR,6aR)-1-([1,1′-biphenyl]-3-carbonyl)hexahydropyrrolo[3,4-b]pyrrole-5(1H)-carbonitrile]
Second: N#CN1C[C@H]2CCN(C(=O)N3CC(Oc4ccccc4)C3)[C@H]2C1 [Example 247, (3aR,6aR)-1-(3-phenoxyazetidine-1-carbonyl)hexahydropyrrolo[3,4-b]pyrrole-5(1H)-carbonitrile]
The IC50 of the first is lower: < 100 nM for the first, 100 to 1000 nM for the second.

Cc1cc(-c2ccn3c(C(=O)N(C)[C@@H]4CCN(C#N)C4)cnc3c2)ccn1 [Example 161, (R)-N-(1-cyanopyrrolidin-3-yl)-N-methyl-7-(2-methylpyridin-4-yl)imidazo[1,2-a]pyridine-3-carboxamide] and CN(C(=O)Nc1cccc(Cc2ccccc2)c1)C1CCN(C#N)C1 (centres unmarked) [Example 256, 3-(3-benzylphenyl)-1-(1-cyanopyrrolidin-3-yl)-1-methylurea] fall in the same range of IC50: 100 to 1000 nM for the first, 100 to 1000 nM for the second.

Compared with CN(c1ccc(C(=O)N[C@@H]2CCN(C#N)C2)c(F)c1)S(=O)(=O)c1ccccc1 [Example 228, (R)-N-(1-cyanopyrrolidin-3-yl)-2-fluoro-4-(N-methylphenylsulfonamido)benzamide], N#CN1CCC(NC(=O)Cc2ccc(-c3ccccc3)cc2)C1 (racemic) [Example 16, 2-([1,1′-biphenyl]-4-yl)-N-(1-cyanopyrrolidin-3-yl)acetamide] is higher in IC50: 100 to 1000 nM for the first, 1000 to 10000 nM for the second. The first is the more potent here.

COCCN(C(=O)Nc1ccc(C(F)(F)F)cc1)C1CCN(C#N)C1 (centres unmarked) [Example 205, 1-(1-cyanopyrrolidin-3-yl)-1-(2-methoxyethyl)-3-(4-(trifluoromethyl)phenyl)urea] and CN(C(=O)Nc1ccc(C(F)(F)F)cc1)[C@@H]1CCN(C#N)C1 [Example 195, (R)-1-(1-cyanopyrrolidin-3-yl)-1-methyl-3-(4-(trifluoromethyl)phenyl)urea] fall in the same range of IC50: 100 to 1000 nM for the first, 100 to 1000 nM for the second.

First: N#Cc1cc(F)c(NC(=O)N2CC[C@@H]3CN(C#N)C[C@@H]32)cc1F [Example 199, (3aR,6aR)-5-cyano-N-(4-cyano-2,5-difluorophenyl)hexahydropyrrolo[3,4-b]pyrrole-1(2H)-carboxamide]
Second: N#CN1CC[C@@H](NC(=O)c2ccc(Nc3nccc(C4CC4)n3)c(F)c2)C1 [Example 213, (R)-N-(1-cyanopyrrolidin-3-yl)-4-((4-cyclopropylpyrimidin-2-yl)amino)-3-fluorobenzamide]
The IC50 of the first is higher: 100 to 1000 nM for the first, < 100 nM for the second.

Compound N#CN1CCC(NC(=O)Nc2ccc(Cl)cc2Cl)C1 (centres unmarked) [Example 251, 1-(1-cyanopyrrolidin-3-yl)-3-(2,4-dichlorophenyl)urea] has an IC50 of 100 to 1000 nM.
